In PubChem BioAssay AID2060511 (Molecular Pharmacology Branch, DTP, NCI, 2025):

System: 422866-222-R5-J1-PDC spheroids with HUVEC/MSC, viability
Assay: Anticancer human tumor 422866-222-R5-J1-PDC patient-derived pancreatic adenocarcinoma cell line growth inhibition [GQUAD]
Details: for IC50: curve of first compound; for viability, T/C: stronger effect = lower value
Text: DNA G-quadruplex Stabilizer Agents in Combinations in Complex Spheroids
A high-throughput screen of multi-cell type tumor spheroids was designed to identify active combinations of DNA G-quadruplex stabilizer agents and targeted small molecules. Complex spheroids include a stromal component modeled by human endothelial cells (HUVEC) and fibroblasts modeled by human mesenchymal stem cells (MSCs). The concentration ranges selected for each drug and investigational agent were based upon clinically achievable concentrations if the clinical Cmax of the agent was known.
Compounds. The drugs and investigational agents: pidnarulex (CX-5461; NSC782164), APTO-253 (NSC789042), BRACO-19 (NSC847499), peposertib (NSC802822), ceralasertib (NSC780249), elimusertib (NSC800525), camonsertib (NSC841442), AZD-1390 (NSC803789), olaparib (NSC753686), talazoparib (NSC767125), ART-558 (NSC835418), sotorasib (NSC818433), MRTX-1133 (NSC836407), SN-38 (NSC673596), topotecan (NSC609699), etoposide (NSC141540), doxorubicin (NSC123127), gemcitabine (NSC613327), 5-fluorouracil (NSC19893), paclitaxel (NSC125973), vemurafenib (NSC761431), panobinostat (NSC761190), R-306465 (JNJ-16241199; NSC773264), adavosertib (NSC754352), TP-3654 (NSC805149), carboplatin (NSC241240), KSQ-4279 (NSC840948), and staurosporine (NSC755774) were obtained from the National Cancer Institute (NCI) Developmental Therapeutics Program Chemical Repository (34). The FDA-approved anticancer drug set is available from the NCI Developmental Therapeutics Program. […] The stock solutions were prepared in dimethyl sulfoxide (DMSO, Sigma-Aldrich, St. Louis, MO, cat. D2650) at 800-fold the tested concentration and stored at -70 degrees C prior to their use. All drugs and investigational agents were tested over a range starting from a high concentration at or near the clinical Cmax and decreasing in half-log increments. If the clinical Cmax for an agent had not been determined, the highest concentration tested was 10 microM.
2.3 Cell Culture. All cells were maintained in an incubator at 37 degrees C and 5% CO2 with 95% humidity. The PDC lines were cultured according to standard operating procedures established by the NCI PDMR. All PDCs were thawed and cultured in Matrigel-coated flasks prepared with a working solution of 1X Ham's F-12 nutrient mix, without supplementation (Invitrogen, cat. 11765054), 100 U/mL penicillin-streptomycin (Invitrogen, cat. 15140122), and 2.5% Matrigel (Corning Inc., cat. 354248) for the first three passages. The 857933-349-R-J2-PDC line was cultured in 6C/Colon 1B media, which includes advanced DMEM/F-12 (Thermo Fisher Scientific, cat. 12634028), 10 mM HEPES (Thermo Fisher Scientific, cat. 15630080), 1X GlutaMAX supplement (Thermo Fisher Scientific, cat. 35050061), 0.1 mg/mL primocin (InvivoGen, cat. ant-pm-2), 10% defined fetal bovine serum, heat inactivated (HyClone Laboratories Inc., cat. SH30070.03HI), 50% L-WRN conditioned media (ATCC, cat. CRL-3276), 1.25 mM N-Acetyl-L-cysteine (Sigma-Aldrich, cat. A9165), 10 mM nicotinamide (Sigma-Aldrich, cat. N0636), 1X B-27 supplement (Thermo Fisher Scientific, cat. 17504044), 1X N-2 supplement (Thermo Fisher Scientific, cat. 17502048), 10 microM Y-27632 dihydrochloride (Tocris Bioscience, cat. 1254), and 50 ng/mL human EGF recombinant protein (Thermo Fisher Scientific, cat. PHG0311). The 485176-168-R4-J1-PDC line was cultured in Panc media, which includes all 6C/Colon 1B media components plus 100 ng/mL human FGF-10 (Thermo Fisher Scientific, cat. 100-26), 500 nM SB-431542 (Selleckchem, cat. S1067), and gastrin (Tocris, cat. 3006).
[…]

[1] = second compound 0.0316 µM, first compound 0.0316 µM
[2] = second compound 0.0316 µM, first compound 0.1 µM
[3] = second compound 0.0316 µM, first compound 0.316 µM
[4] = second compound 0.0316 µM, first compound 1 µM
[5] = second compound 0.0316 µM, first compound 3.16 µM
[6] = second compound 0.0316 µM, first compound 10 µM
[7] = second compound 0.1 µM, first compound 0.0316 µM
[8] = second compound 0.1 µM, first compound 0.1 µM
[9] = second compound 0.1 µM, first compound 0.316 µM
[10] = second compound 0.1 µM, first compound 1 µM
[11] = second compound 0.1 µM, first compound 3.16 µM
[12] = second compound 0.1 µM, first compound 10 µM
[13] = second compound 0.316 µM, first compound 0.0316 µM
[14] = second compound 0.316 µM, first compound 0.1 µM
[15] = second compound 0.316 µM, first compound 0.316 µM
[16] = second compound 0.316 µM, first compound 1 µM
[17] = second compound 0.316 µM, first compound 3.16 µM
[18] = second compound 0.316 µM, first compound 10 µM
[19] = second compound 1 µM, first compound 0.0316 µM
[20] = second compound 1 µM, first compound 0.1 µM
[21] = second compound 1 µM, first compound 0.316 µM
[22] = second compound 1 µM, first compound 1 µM
[23] = second compound 1 µM, first compound 3.16 µM
[24] = second compound 1 µM, first compound 10 µM
[25] = second compound 3.16 µM, first compound 0.0316 µM
[26] = second compound 3.16 µM, first compound 0.1 µM
[27] = second compound 3.16 µM, first compound 0.316 µM
[28] = second compound 3.16 µM, first compound 1 µM
[29] = second compound 3.16 µM, first compound 3.16 µM
[30] = second compound 3.16 µM, first compound 10 µM
[31] = second compound 10 µM, first compound 0.0316 µM
[32] = second compound 10 µM, first compound 0.1 µM
[33] = second compound 10 µM, first compound 0.316 µM
[34] = second compound 10 µM, first compound 1 µM
[35] = second compound 10 µM, first compound 3.16 µM
[36] = second compound 10 µM, first compound 10 µM
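Note: spheroids exposed to compounds for seven days before reading.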
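Throughout, for viability, T/C: percent viability relative to DMSO vehicle control taken as 100%.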

C=CC(=O)N1CCN(c2nc(=O)n(-c3c(C)ccnc3C(C)C)c3nc(-c4c(O)cccc4F)c(F)cc23)C(C)C1 (centres undefined) + CN(C)c1ccc(Nc2c3ccc(NC(=O)CCN4CCCC4)cc3nc3cc(NC(=O)CCN4CCCC4)ccc23)cc1
IC50 (second compound 0.0316 µM): < 0.0316 µM
IC50 (second compound 0.1 µM): < 0.0316 µM
IC50 (second compound 0.316 µM): < 0.0316 µM
IC50 (second compound 1 µM): < 0.0316 µM
IC50 (second compound 3.16 µM): < 0.0316 µM
IC50 (second compound 10 µM): < 0.0316 µM
viability, T/C [1]: 39.3%
viability, T/C [2]: 32.5%
viability, T/C [3]: 29.6%
viability, T/C [4]: 25.2%
viability, T/C [5]: 26.4%
viability, T/C [6]: 30%
viability, T/C [7]: 37.9%
viability, T/C [8]: 29.4%
viability, T/C [9]: 26.6%
viability, T/C [10]: 22.7%
viability, T/C [11]: 27.3%
viability, T/C [12]: 26.4%
viability, T/C [13]: 41.9%
viability, T/C [14]: 25.2%
viability, T/C [15]: 29.9%
viability, T/C [16]: 25.7%
viability, T/C [17]: 30.7%
viability, T/C [18]: 28.7%
viability, T/C [19]: 27.8%
viability, T/C [20]: 27.9%
viability, T/C [21]: 25.1%
viability, T/C [22]: 23.9%
viability, T/C [23]: 24.7%
viability, T/C [24]: 28%
viability, T/C [25]: 31.2%
viability, T/C [26]: 25.5%
viability, T/C [27]: 24.3%
viability, T/C [28]: 25.3%
viability, T/C [29]: 25%
viability, T/C [30]: 28.3%
viability, T/C [31]: 29.5%
viability, T/C [32]: 27.3%
viability, T/C [33]: 25.7%
viability, T/C [34]: 29%
viability, T/C [35]: 28.8%
viability, T/C [36]: 29.1%

CCCS(=O)(=O)Nc1ccc(F)c(C(=O)c2c[nH]c3ncc(-c4ccc(Cl)cc4)cc23)c1F + CN(C)c1ccc(Nc2c3ccc(NC(=O)CCN4CCCC4)cc3nc3cc(NC(=O)CCN4CCCC4)ccc23)cc1
IC50 (second compound 0.0316 µM): > 10 µM
IC50 (second compound 0.1 µM): > 10 µM
IC50 (second compound 0.316 µM): > 10 µM
IC50 (second compound 1 µM): > 10 µM
IC50 (second compound 3.16 µM): > 10 µM
IC50 (second compound 10 µM): > 10 µM
viability, T/C [1]: 95.8%
viability, T/C [2]: 117%
viability, T/C [3]: 121%
viability, T/C [4]: 136%
viability, T/C [5]: 164%
viability, T/C [6]: 130%
viability, T/C [7]: 112%
viability, T/C [8]: 91.6%
viability, T/C [9]: 112%
viability, T/C [10]: 137%
viability, T/C [11]: 203%
viability, T/C [12]: 128%
viability, T/C [13]: 98%
viability, T/C [14]: 108%
viability, T/C [15]: 122%
viability, T/C [16]: 143%
viability, T/C [17]: 158%
viability, T/C [18]: 127%
viability, T/C [19]: 74.3%
viability, T/C [20]: 88.3%
viability, T/C [21]: 113%
viability, T/C [22]: 112%
viability, T/C [23]: 196%
viability, T/C [24]: 130%
viability, T/C [25]: 83.8%
viability, T/C [26]: 97.7%
viability, T/C [27]: 97%
viability, T/C [28]: 157%
viability, T/C [29]: 189%
viability, T/C [30]: 154%
viability, T/C [31]: 90.3%
viability, T/C [32]: 90.2%
viability, T/C [33]: 123%
viability, T/C [34]: 131%
viability, T/C [35]: 129%
viability, T/C [36]: 153%
